Measurements: ChEMBL document CHEMBL3639280, “2-Phenyl-1-[4-(2-Aminoethoxy)-Benzyl]-Indole and estrogen formulations” (2014)

Target: T1, Estrogen receptor (Homo sapiens, UniProt P03372)
T1 sequence (P03372 whole entry): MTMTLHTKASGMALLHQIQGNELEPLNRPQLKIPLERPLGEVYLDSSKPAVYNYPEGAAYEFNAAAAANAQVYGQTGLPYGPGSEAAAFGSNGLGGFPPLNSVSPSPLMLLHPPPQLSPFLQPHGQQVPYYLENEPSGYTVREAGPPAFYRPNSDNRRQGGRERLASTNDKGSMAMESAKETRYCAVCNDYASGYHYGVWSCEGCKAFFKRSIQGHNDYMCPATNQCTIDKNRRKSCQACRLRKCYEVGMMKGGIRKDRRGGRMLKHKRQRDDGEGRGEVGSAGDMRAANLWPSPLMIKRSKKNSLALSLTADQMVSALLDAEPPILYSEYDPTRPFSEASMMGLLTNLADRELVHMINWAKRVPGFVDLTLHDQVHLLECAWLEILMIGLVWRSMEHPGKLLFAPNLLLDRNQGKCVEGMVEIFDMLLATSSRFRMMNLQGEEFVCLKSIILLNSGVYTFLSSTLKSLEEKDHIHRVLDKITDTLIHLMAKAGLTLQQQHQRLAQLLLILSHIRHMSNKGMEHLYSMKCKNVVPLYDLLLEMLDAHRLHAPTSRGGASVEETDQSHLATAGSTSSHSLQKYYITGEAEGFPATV
Assay: Binding Assay: The competition assay was performed in a 96-well plate (polystyrene*) which binds <2.0% of the total input [3H]-17beta-estradiol and each data point was gathered in triplicate. 100 uG/100 uL of the receptor preparation was aliquoted per well. A saturating dose of 2.5 nM [3H]17beta-estradiol+competitor (or buffer) in a 50 uL volume was added in the preliminary competition when 100x …

**Q.** Cc1c(-c2ccc(O)cc2)n(Cc2ccc(OCCN3CC4CCC3C4)cc2)c2ccc(O)cc12 (stereo unspecified) was tested. Which IC50 did it give?
**A.** 1 nM
